The values below come from patent USRE44962E1, “Genetically engineered plant cells and plants exhibiting resistance to glutamine synthetase inhibitors, DNA fragments and recombinants for use in the production of said cells and plants” (Bayer Cropscience N.V., priority 1986, dated 2014).

One assay concerns S. lividans. Type of assay: cell-based.
Another assay has as its system E. coli W3110. The experiment in a line: Growth of E. coli W3110 on M9 medium containing Bialaphos. Type of assay: cell-based. The conditions noted are these: for resistance of pBG93/W3110 to Bialaphos: M9 medium.
Another assay concerns the target PPT acetyl transferase (Streptomyces hygroscopicus, UniProt P16426). Type of assay: biochemical, S. hygroscopicus ATCC 21 705. The settings on record: S. hygroscopicus derivates; S. lividans carrying pBG20 or pBG16.
A further assay concerns Phytophtora infestans. Type of assay: in vivo. The settings on record: sfr potato plants sprayed at 8 l/ha once symptoms visible, read two weeks later.
For assay [1], the system named is glutamine synthetase (GS). The settings on record: cited from earlier work.

Chain of PPT acetyl transferase (P16426 whole entry): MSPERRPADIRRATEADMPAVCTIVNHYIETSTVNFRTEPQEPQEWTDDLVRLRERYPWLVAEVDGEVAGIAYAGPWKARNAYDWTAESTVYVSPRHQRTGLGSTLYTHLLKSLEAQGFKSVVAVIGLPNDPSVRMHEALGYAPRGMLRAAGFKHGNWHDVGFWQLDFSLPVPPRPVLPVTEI

For the molecule `CC(NC(=O)C(C)NC(=O)C(N)CCP(C)(=O)O)C(=O)O` (stereo not shown) [Bialaphos], the “growth of transformants containing pBG20” value with S. lividans (S. lividans with pBG20, medium containing 500 μg/ml Bialaphos) is on record as “not noticeably inhibited”. Besides, the “Bialaphos concentration at which S. lividans growth is normally inhibited” value in the assay with S. lividans (untransformed S. lividans, minimal medium) was 1 µg/mL. Moreover, the “growth of W3110 host devoid of pBG93” value in the assay with E. coli W3110 (M9 medium containing 5 μg/ml Bialaphos) is reported as “did not grow”. Besides, the “resistance of pBG93/W3110 to Bialaphos” value came to 50 μg/ml in the assay with E. coli W3110 (in the presence of IPTG (0.5 mM)) and 5 μg/ml in the assay on E. coli W3110 (without IPTG). Besides, the “acetylation by the PPT acetyl transferase activity” value at PPT acetyl transferase was “does not acetylate”. Also, the “growth of the fungus on treated plants” value with Phytophtora infestans was “stopped”.

As to `CC(=O)NC(CCP(C)(=O)O)C(=O)O` (stereo not shown) [N-acetyl PPT], in assay [1], the “inhibition of glutamine synthetase (GS)” value was “not an inhibitor”.

With `CP(=O)(O)CCC(N)C(=O)O` (stereo not shown) [PPT, phosphinothricin], the “acetylation by the PPT acetyl transferase activity” value at PPT acetyl transferase is “could acetylate”. The “inhibition of glutamine synthetase (GS)” value in assay [1] is given as “inhibits”.
